Data set [1] deals with CV-1 monkey kidney cells (do not express AR). As to conditions: for IC50: read-out: Growth Curve CV-1.
The test system of data set [2] is LNCaP prostate cancer cells (express AR). Conditions: for IC50: read-out: Growth Curve LNCaP.
Data set [3] has the same test system. The experiment in a line: cells. Conditions: Homo sapiens, 120 h, read-out: Growth Curve LNCaP.
Another data set concerns the target T1, Androgen Receptor (AR) (Rattus norvegicus, UniProt P15207).
T1 sequence (P15207 1-902): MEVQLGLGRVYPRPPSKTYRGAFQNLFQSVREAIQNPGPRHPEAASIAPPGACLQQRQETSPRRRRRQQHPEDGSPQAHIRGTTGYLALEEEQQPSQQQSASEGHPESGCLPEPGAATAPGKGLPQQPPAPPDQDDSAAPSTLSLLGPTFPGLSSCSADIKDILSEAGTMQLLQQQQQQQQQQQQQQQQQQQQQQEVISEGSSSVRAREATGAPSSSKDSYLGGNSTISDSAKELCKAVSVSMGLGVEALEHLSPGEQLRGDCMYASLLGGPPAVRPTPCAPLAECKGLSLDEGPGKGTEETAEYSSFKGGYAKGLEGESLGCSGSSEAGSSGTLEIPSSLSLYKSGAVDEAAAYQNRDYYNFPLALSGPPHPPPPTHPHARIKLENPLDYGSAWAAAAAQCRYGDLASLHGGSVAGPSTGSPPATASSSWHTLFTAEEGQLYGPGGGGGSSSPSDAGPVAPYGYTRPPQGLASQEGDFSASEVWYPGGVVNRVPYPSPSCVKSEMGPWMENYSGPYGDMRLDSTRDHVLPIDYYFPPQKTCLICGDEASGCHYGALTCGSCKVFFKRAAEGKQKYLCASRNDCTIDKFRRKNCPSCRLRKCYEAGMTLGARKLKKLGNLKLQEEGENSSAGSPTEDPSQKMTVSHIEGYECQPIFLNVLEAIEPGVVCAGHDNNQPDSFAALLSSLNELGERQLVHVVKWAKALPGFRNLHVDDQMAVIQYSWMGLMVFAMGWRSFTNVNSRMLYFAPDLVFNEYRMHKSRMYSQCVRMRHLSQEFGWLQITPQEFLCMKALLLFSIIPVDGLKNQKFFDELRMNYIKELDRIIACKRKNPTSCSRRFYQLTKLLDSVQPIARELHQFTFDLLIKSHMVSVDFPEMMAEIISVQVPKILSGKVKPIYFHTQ
Format: binding.

Data set [4] deals with LNCaP prostate cancer cells (express AR).

Like-named read-outs stand apart in the source and are kept apart here.

Data on seven molecules can be found in US20050209320A1 (priority 2003, published 2005).

For the molecule `C[C@](O)(COc1ccc(N(CCCl)CCCl)cc1)C(=O)Nc1ccc(C#N)c(C(F)(F)F)c1.Cl` [Compound 1], in data set [1], the “cytotoxicity in CV-1 cells” value was “cytotoxic”, the “potency in CV-1 cells less than in LNCaP cells” value is given as “approximately 3.5 fold” and the IC50 was 1940 nM. For the same molecule, in data set [2], the IC50 worked out at 860 nM.

As to `C[C@](O)(COc1ccc(N(CCO)CCO)cc1)C(=O)Nc1ccc(C#N)c(C(F)(F)F)c1` [Compound 2], the “cytotoxicity in CV-1 cells” value in data set [1] is recorded as “not cytotoxic”. Moreover, in data set [3], the IC50 is 770 nM. In data set [2], the “cytotoxicity / cell growth inhibition in LNCaP cells” value is reported as “not cytotoxic” and the max inhibition entry is recorded as “Trypan Blue (max 65% inhibition)”.

Take `OCCN(CCO)c1ccc(O)cc1` [Compound 4]: the “Ki (nM)” value on Androgen Receptor (AR) was “DNB”. Besides, the “cytotoxicity in LNCaP cells” value in data set [4] is listed as “nontoxic”.

Take `C[C@](O)(CSc1ccc(OC(=O)N(CCCl)CCCl)cc1)C(=O)Nc1ccc([N+](=O)[O-])c(C(F)(F)F)c1` [Compound 6]: the results for the IC50 in data set [1] and in data set [2] were 4650 nM and 800 nM, respectively.

For the molecule `C[C@](O)(COc1ccc(N(CCCl)CCCl)cc1)C(=O)Nc1ccc(C#N)c(I)c1.Cl` [Compound 7], in data set [1], the IC50 worked out at 2610 nM. Further, in data set [2], the “cytotoxicity / cell growth inhibition in LNCaP cells” value is “potent and selective cell growth inhibition effect”; the IC50 was 330 nM.

As to `C[C@](O)(COc1ccc(N(CCCl)CCCl)cc1)C(=O)Nc1ccc([N+](=O)[O-])c(C(F)(F)F)c1.Cl` [Compound 8], the figures for the IC50 in data set [1] and in data set [2] were 5200 nM and 810 nM, respectively. Further, the “cytotoxicity / cell growth inhibition in LNCaP cells” value in data set [2] was “potent and selective cell growth inhibition effect”.

Regarding `C[C@](O)(CS(=O)(=O)c1ccc(OC(=O)N(CCCl)CCCl)cc1)C(=O)Nc1ccc([N+](=O)[O-])c(C(F)(F)F)c1` [Compound 10], the IC50 was determined as 2600 nM in data set [1] and 1500 nM in data set [2].
